Patent publication US20110319379A1, “Substituted Indazole Amides And Their Use As Glucokinase Activators” (priority 2009, published 2011)

target: T1, recombinant human glucokinase (beta cell isoform) (Homo sapiens, UniProt P35557); test: Assay 1: Evaluating Activator Potency and Maximum Activation at 5 mM Glucose; format: biochemical; conditions: Assay 1; 5 mM glucose; NADH depletion at 340 nm, PK/LDH coupled; read-out: Glucokinase EC50
T1 construct: Full-length glucokinase (beta cell isoform) was His-tagged at the N-terminus; His tag (N); made in house; host or cells: E. coli BL21(DE3), vector pBCGK
T1 sequence (P35557 1-465): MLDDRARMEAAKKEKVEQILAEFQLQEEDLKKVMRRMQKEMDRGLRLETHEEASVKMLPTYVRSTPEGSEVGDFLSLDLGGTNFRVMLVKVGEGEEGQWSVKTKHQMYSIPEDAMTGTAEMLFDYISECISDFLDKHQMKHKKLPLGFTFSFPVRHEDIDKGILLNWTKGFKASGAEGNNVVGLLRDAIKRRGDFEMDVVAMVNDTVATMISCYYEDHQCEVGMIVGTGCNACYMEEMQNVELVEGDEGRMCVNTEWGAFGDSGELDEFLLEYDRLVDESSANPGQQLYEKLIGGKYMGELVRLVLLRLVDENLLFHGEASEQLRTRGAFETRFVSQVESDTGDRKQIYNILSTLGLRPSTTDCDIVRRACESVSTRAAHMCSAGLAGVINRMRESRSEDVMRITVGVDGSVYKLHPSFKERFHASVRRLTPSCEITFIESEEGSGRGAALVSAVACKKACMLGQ
Experimental: Representative compounds of this invention were evaluated in biochemical assays (Assay 1 or Assay 2) to characterize their glucokinase activation properties.
The recombinant human glucokinase protein utilized in both assays was prepared and purified as described below.
BL21(DE3) cells (Invitrogen Corporation, Carlsbad, Calif.) containing pBCGK (C or N H is) vector were grown at 37° C. (in 2XYT) until the OD600 was between 0.6-1.0. Expression was induced by addition of isopropylthiogalactoside to a final concentration of 0.1-0.2 mM to the cells which were then incubated overnight at 23° C. The next day, cells were harvested via centrifugation at 5000 rpm for 15 minutes at 4° C. The cell pellet was stored at −80° C. for future purification.
Beta Cell Glucokinase His-Taq Purification Conditions: A Ni-NTA (Quigan, Germantown, Md.) column (15-50 mL) was used for separation. Two buffers were prepared, 1) a lysis/nickel equilibration and wash buffer and 2) a nickel elution buffer. The lysis/equilibration/wash buffer was prepared as such: 25 mM HEPES buffer at pH 7.5, 250 mM NaCl, 20 mM imidazole, and 14 mM β-mercaptoethanol as final concentrations. The elution buffer was prepared as such: 25 mM HEPES at pH 7.5, 250 mM NaCl, 400 mM imidazole, and 14 mM β-mercaptoethanol as final concentrations. The buffers were each filtered with a 0.22 μm filter prior to use. The cell pellet (1 L culture) was resuspended in 300 mL of the lysis/equilibration buffer. The cells were then lysed (3 times) with a Microfluidics Model 110Y microfluidizer (Microfluidics Corporation, Newton, Mass.). The slurry was centrifuged with a Beckman Coulter Model LE-80K ultracentrifuge (Beckman Coulter, Fullerton, Calif.) at 40,000 rpm for 45 minutes at 4° C. The supernatant was transferred to a chilled flask. A volume of 20 μl was saved for gel analysis. A Pharmacia AKTA (GMI, Inc., Ramsey, Minn.) purification system was used for separation. The prime lines were purged with lysis/equilibration buffer. The Ni-NTA column was equilibrated with 200 mL of the lysis/equilibration buffer at a flow rate of 5 mL/minute. The supernantant was loaded over the column at 4 mL/minute and the flow-through was collected in a flask. The unbound proteins were washed with lysis/equilibration buffer at a flow rate of 5 mL/minute until the ultraviolet reaches baseline. The protein was then eluted from the column with the imidazole elution buffer via imidazole gradient 20 mM to 400 mM over 320 mL. The column was then stripped of any additional protein with 80 mL of the elution buffer. The elution fractions were each 8 mL, for a total yield of 50 samples. Fractions were analyzed by sodium dodecyl sulfate polyacrylamide (SDS-PAGE) and the fractions containing protein of interest were pooled and concentrated to 10 mL using ultrafiltration cell with a 10,000 molecular weight cut-off (MWCO) Millipore membrane (Sigma-Aldrich, St. Louis, Mo.) under nitrogen gas (60 psi). Protein was further purified by size exclusion chromatography (SEC) using a […] (320 mL) (Amersham Pharmacia, Uppsala, Sweden). SEC was equilibrated with 450 mL sizing buffer containing 25 mM HEPES pH 7.0, 50 mM NaCl, and 5 mM dithiothreitol. Concentrated protein was then loaded over SEC and elution with 400 mL sizing buffer was performed overnight at 0.5 mL/minute. The elution fractions were 5 mL each. The fractions were analyzed by SDS-PAGE and protein containing fractions were pooled. Concentration was measured using Bradford Assay/BSA Standard. Purified protein was stored in small aliquots at −80° C.
Assay 1: Evaluating Activator Potency and Maximum Activation at 5 mM Glucose
Full-length glucokinase (beta cell isoform) was His-tagged at the N-terminus and purified by a Ni column followed by size exclusion chromatography as described above. Glucose was obtained from Calbiochem (San Diego, Calif.) and other reagents were purchased from Sigma-Aldrich (St. Louis, Mo.).

With `Cn1ccc(NC(=O)c2cc(Oc3cnc(C(F)(F)F)cn3)c3cn(C)nc3c2)n1` [Example 1J, 2-methyl-N-(1-methyl-1H-pyrazol-3-yl)-4-{[5-(trifluoromethyl)pyrazin-2-yl]oxy}-2H-indazole-6-carboxamide] as the molecule, how does the EC50 read?
Its EC50 is 22.4 µM.

How did the EC50 turn out when `CN(C)C(=O)c1ncc(Oc2cc(C(=O)Nc3ccc(Cl)cn3)cc3nn(C)cc23)cn1` [Example 1AA, N-(5-chloropyridin-2-yl)-4-(2-(dimethylcarbamoyl)pyrimidin-5-yloxy)-2-methyl-2H-indazole-6-carboxamide] was run?
The EC50 was 0.863 µM.

`Cn1cc2c(Oc3cnc(C(F)(F)F)cn3)cc(C(=O)Nc3cnn(C)n3)cc2n1` [Example 1K, 2-methyl-N-(2-methyl-2H-1,2,3-triazol-4-yl)-4-{[5-(trifluoromethyl)pyrazin-2-yl]oxy}-2H-indazole-6-carboxamide] was tested. Which EC50 did it give?
Its EC50 is 16.1 µM.

`Cc1cnc(NC(=O)c2cc(Oc3cnc(C(F)(F)F)cn3)c3cn(C)nc3c2)cn1` [Example 1I, 2-methyl-N-(5-methylpyrazin-2-yl)-4-{[5-(trifluoromethyl)pyrazin-2-yl]oxy}-2H-indazole-6-carboxamide] was tested. Which EC50 did it give?
Its EC50 is 19.4 µM.

For `CCn1cc2c(Oc3ccc(S(C)(=O)=O)cc3)cc(C(=O)Nc3ccc(C)cn3)cc2n1` [Example 1R, 2-ethyl-N-(5-methylpyridin-2-yl)-4-[4-(methylsulfonyl)phenoxy]-2H-indazole-6-carboxamide], which EC50 is on record?
The EC50 was 1.41 µM.

How did the EC50 turn out when `CCn1cc2c(Oc3ccc(S(C)(=O)=O)cc3)cc(C(=O)Nc3ccccn3)cc2n1` [Example 1Q, 2-ethyl-4-[4-(methylsulfonyl)phenoxy]-N-pyridin-2-yl-2H-indazole-6-carboxamide] was run?
The EC50 was 2.42 µM.

For `Cn1ccc(NC(=O)c2cc(Oc3ccc(S(C)(=O)=O)cc3)c3cn(C)nc3c2)n1` [Example 1N, 2-methyl-N-(1-methyl-1H-pyrazol-3-yl)-4-[4-(methylsulfonyl)phenoxy]-2H-indazole-6-carboxamide], which EC50 is on record?
The EC50 was 8.54 µM.
